In patent publication US11365415B2, “Use of miR-223-3p as a cancer therapeutic and method for treating cancer using the same” (University of Florida Research Foundation, Inc., priority 2016, dated 2022):

Tests used:
Assay type in all cases: cell-based
[1] = system: endogenous miR-223-3p in HL60 cells; experiment: qRT-PCR of endogenous miR-223-3p in HL60 cells after Ara-C; conditions: 50 μM Ara-C, different time points
Description: Quantitative real time PCR (qRT-PCR) measuring endogenous miR-223 If miR-223-3p is a physiologic regulator of PARP1 expression, then its expression should be repressed after DNA damage, when higher levels of PARP1 are required to repair this damage. Mir223-3p is most highly expressed in hematopoietic cells, such as the HL60 cell line. HL60 cells were treated with 50 μM cytarabine (Ara-C) for lhr, 4 hr, 8 hr, 12 hr and 24 hr. Western blot analysis was performed to examine PARP1 protein levels in these samples. For measuring levels of miR-223-3p, cells were collected at the above time points, RNA isolated using the Qiagen RNeasy kit. cDNA conversion was then performed using first-strand cDNA synthesis kit for miRNA from Origene (HP100042). qRT-PCR for miR-223 3p was performed on a 7900HT Fast Real-Time PCR system (ABI) according to Origene protocol and ACT values were calculated. […]
Quantitative Real Time PCR (qRT-PCR) Measuring Endogenous miR223-3p. […] For measuring levels of miR223-3p, cells were collected at the above time points, RNA isolated using the Qiagen RNeasy kit. cDNA conversion was then performed using first-strand cDNA synthesis kit for miRNA from Origene (HP100042). qRT-PCR for miR223 3p was performed on a 7900HT Fast Real-Time PCR system (ABI) according to Origene protocol and ΔCT values were calculated. […]

[2] = system: Human Mesothelioma cells (H-Meso 01A); experiment: Colony formation of BAP1 mutant human mesothelioma cells treated with olaparib; conditions: 3 olaparib, 10 days continuous
Description: These cells were treated with the PARP inhibitor, olaparib. Human Mesothelioma cells (H-Meso 01A) were cultured in RPMI media supplemented with 10% FBS and 1% Penicillin/Streptomycin. These cells were seeded in a 6-well plate at a density of 4000 cells/well and allowed to grow for 18 hours. Of the six wells, three wells were treated with […] (LC laboratories, Cat #0-9201) each and the other three wells were considered as controls. The cells were allowed to grow for 10 days. Olaparib stayed on the cells throughout the experiment. After 10 days of incubation, colonies were stained with 0.1% crystal violet in methanol and counted using Image J software. Olaparib killed at least 80-90% of the cells. The experiment was done three times, each in triplicates and the average from all three times was calculated (FIG. 24).

[3] = system: MDA-MB-436 (breast cancer) cells, deficient in BRCA1; experiment: Colony formation survival assay, MDA-MB-436; conditions: MDA-MB-436, 25 nm miR-223-3p mimic, colonies counted after 14 days
Description: (§1) Colony formation assays measures the ability of a single cell to not only survive, but also to proliferate. Thus, it is an indirect measurement of cancer stem cell activity, the ability of a single cell to give rise to a host of progeny. The BRCA1-deficient MDA-MB-436 breast cancer cells were cultured in DMEM supplemented with 10% FBS and 1% penicillin and streptomycin. BRRCA1-deficient UWB1.289 ovarian cancer cells were cultured and maintained in 50% MEBM medium with growth factors and 50% RPMI medium supplemented with 3% FBS and 1% penicillin and streptomycin. 25 nm of mirVana miR-223 3p mimic from Ambion life technologies (Cat #4464067) was used to deplete PARP1 protein in these cell lines. Mir223-3p was encapsulated into the lipid transfection complex, RNAiMAX. […] After 48 hours, the cells were trypsinized, counted and plated in 6 well plates at a density of 4000 cells per well, in triplicates. After 14 days of incubation, colonies were stained with 0.1% crystal violet in methanol and counted using Image J software. […]
(§2) Cell Culture, miRNA transfection and Survival Assay. […] After 48 hours, the cells were trypsinized, counted and plated in 6 well plates at a density of 4000 cells per well, in triplicates. After 14 days of incubation, colonies were stained with 0.1% crystal violet in methanol and counted using Image J software. […]

[4] = system: UWB1.289 (ovarian cancer) cells, deficient in BRCA1; experiment: Colony formation survival assay, UWB1.289; conditions: UWB1.289, 25 nm miR-223-3p mimic, colonies counted after 14 days
Description: as §1, §2

[5] = system: PARP1; experiment: Western analysis of PARP1 after exposure to miR-223-3p mimic; conditions: for PARP1 protein expression (Western): breast and ovarian cell lines harboring BRCA1 mutant (MDA-MB-436, UWB1.289); for PARP1 repression/knockdown (Western): cell line not given, 25 nM mimic in FIG. 33
Description: Colony formation assays measures the ability of a single cell to not only survive, but also to proliferate. Thus, it is an indirect measurement of cancer stem cell activity, the ability of a single cell to give rise to a host of progeny. The BRCA1-deficient MDA-MB-436 breast cancer cells were cultured in DMEM supplemented with 10% FBS and 1% penicillin and streptomycin. BRRCA1-deficient UWB1.289 ovarian cancer cells were cultured and maintained in 50% MEBM medium with growth factors and 50% RPMI medium supplemented with 3% FBS and 1% penicillin and streptomycin. 25 nm of mirVana miR-223 3p mimic from Ambion life technologies (Cat #4464067) was used to deplete PARP1 protein in these cell lines. Mir223-3p was encapsulated into the lipid transfection complex, RNAiMAX. 25 nm of miR-223-3p was incubated in 500 μL Opti-MEM plus 6 μl of RNAiMAX for 20 mins at room temperature and then added to the cells for a final volume of 1 ml. After 48 hours, the cells were trypsinized, counted and plated in 6 well plates at a density of 4000 cells per well, in triplicates. After 14 days of incubation, colonies were stained with 0.1% crystal violet in methanol and counted using Image J software. PARP1 repression by miR-223-3p was shown by western blot. PARP1 antibody was purchased from Cell Signaling (46D11).
(§3) Cell Culture, miRNA transfection and Survival Assay. The BRCA1-deficient MDA-MB-436 breast cancer cells were cultured in DMEM supplemented with 10% FBS and 1% penicillin and streptomycin. BRRCA1-deficient UWB1.289 ovarian cancer cells were cultured and maintained in 50% MEBM medium with growth factors and 50% RPMI medium supplemented with 3% FBS and 1% penicillin and streptomycin. BAP1-mutant H2452 mesothelioma cells were cultured in RPMI 1640 medium supplemented with 10% fetal bovine serum and 1% penicillin and streptomycin. 25 nm of mirVana miR223-3p mimic from Ambion life technologies (Cat #4464067) was used to deplete PARP1 protein in these cell lines. Mir223-3p was encapsulated into the lipid transfection complex, RNAiMAX. 25 nm of mir223-3p was incubated in 500 µL Opti-MEM plus 6 ul of RNAiMAX for 20 mins at room temperature, and then added to the cells for a final volume of 1 ml. After 48 hours, the cells were trypsinized, counted and plated in 6 well plates at a density of 4000 cells per well, in triplicates. After 14 days of incubation, colonies were stained with 0.1% crystal violet in methanol and counted using Image J software. PARP1 repression by mir223-3p was shown by western blot. PARP1 antibody was purchased from Cell Signaling (46D11). FIG. 44 illustrates the depletion of other DNA repair components in addition to PARP1.

[6] = system: aNHEJ; experiment: Alternative non-homologous end joining (aNHEJ) assay in EJ2-GFP U2OS cells; conditions: prior exposure to miR-223-3p, I-SceI expression
Description: PARP1 is involved in the initial step in aNHEJ DNA double strand break repair. If PARP1 is repressed, then aNHEJ is decreased. The EJ2-GFP U2OS system was used to assess aNHEJ. This reporter system contains single, integrated copy of reporter with I-SceI target sites. These sites were cleaved upon transfection of an I-SceI expression vector. Cells were transfected with miR-223 3p mimic using RNAiMAX. 24 hours after transfection, the cells were transfected with I-SceI vector using polyethylenimine (PEI). After 72 hours, EJ2 cells were trypsinized, washed with PBS and GFP-positive cells were measured using FACSort (Becton-Dickinson, San Jose, Calif.). The GFP positive cells are proportional to the aNHEJ frequency.
Alternative Non-Homologous End Joining (aNHEJ) assay. PARP1 is the initial step in aNHEJ DNA double strand break repair. If PARP1 is repressed, then aNHEJ will be decreased. The EJ2-GFP U2OS system was used to assess aNHEJ. This reporter system contains single, integrated copy of reporter with I-SceI target sites. These sites were cleaved upon transfection of an I-SceI expression vector. Cells were transfected with miR223 3p mimic using RNAiMAX. […] After 72 hours, EJ2 cells were trypsinized, washed with PBS and GFP-positive cells were measured using FACSort (Becton-Dickinson, San Jose, Calif.). […]

[7] = system: PARP1 3′ UTR mRNA; experiment: Luciferase assay for stability of PARP1 3′ UTR mRNA in A549 cells; conditions: normalized against Renilla luciferase
Description: (§4) A549 cells were transfected with miR-223-3p mimic using RNAiMAX as above. After 6 hours, these cells were transfected with PARP 3′UTR plasmid fused with dual luciferase reporter from GeneCopoeia using Lipofectamine 2000. 48 hours post-transfection, cells were collected and assessed for luciferase activity using Luc-Pair Dual Luciferase assay kit from GeneCopoeia. The firefly luciferase activity is normalized against Renilla luciferase, which serves as a transfection control.
as §4, with “Luciferase assay for assessing stability of PARP1 3′ UTR mRNA. A549” for “A549”, “miR223-3p” for “miR-223-3p”

[8] = system: MDA-MB-436 BRCA mutant cells; experiment: Active replication forks analysis (BrdU foci), MDA-MB-436; conditions: 72 hours after miRNA transfection, BrdU 30 minutes
Description: Active Replication Forks Analysis. Active Replication forks after miR223-3p mimic transfection were measured using immunofluorescent detection of BrdU foci after DNA denaturation. Briefly, 72 hours after transfection, cells were released into fresh media containing 10 uM BrdU (BD Biosciences, Franklin Lakes, N.J.) for 30 min. After washing, cells on coverslip were fixed and the DNA denatured using hydrochloric acid for BrdU immunostaining. The coverslips were processed for immunostaining using BrdU-specific antibody (Cell Signaling, Danvers, Mass.) and then incubated with a secondary antibody conjugated with Alexa Fluor dye from Invitrogen for 1 h. Cells were analyzed as above using the laser scanning confocal microscope. At least five hundred cells were counted for each condition from at least six distinct slides per condition for statistical analysis.

[9] = system: other DNA repair components as well as PARP1; experiment: Western blot of DNA repair components after miR223-3p mimic; conditions: MDA MB 436, HCC1937 and H2452 cells, 48 hours after transfection, vs scr control
Description: as §3

Nc1ccn([C@@H]2O[C@H](CO)[C@@H](O)[C@@H]2O)c(=O)n1 [Ara-C, cytarabine]
levels of endogenous miR-223-3p (qRT-PCR) [1]: gradual decrease

O=C(c1cc(Cc2n[nH]c(=O)c3ccccc23)ccc1F)N1CCN(C(=O)C2CC2)CC1 [Olaparib, olaparib]
cells killed (colony formation) [2]: 80-90%

miR-223-3p: mirVana miR-223 3p mimic from Ambion life technologies (Cat #4464067); miR-223-3p is SEQ ID NO: 75; transfected with RNAiMAX (UGUCAGUUUGUCAAAUACCCCA; listed as RNA, chemistry not given here) [mirVana miR-223 3p mimic from Ambion life technologies (Cat #4464067); transfected with RNAiMAX]
number of colonies [3]: decreased number of colonies
number of colonies [4]: decreased number of colonies
PARP1 knockdown (Western) ([5]; BAP1 mutant mesothelioma): knockdown of PARP1
PARP1 knockdown (Western) ([5]; EJ2-GFP cell reporter system): knockdown of PARP1
PARP1 protein expression (Western) [5]: represses PARP1 protein expression
PARP1 protein expression (Western) ([5]; listed as mir223 mimic): knockdown of PARP1
PARP1 repression/knockdown (Western) [5]: Knockdown of PARP1
PARP1 repression/knockdown (Western) ([5]; listed as miR223 mimic): repression of PARP1
fraction of EJ2 cells with productive aNHEJ (GFP positive cells) [6]: decreased
Luciferase expression (PARP1 3′ UTR linked to Firefly Luciferase) [7]: decreased
Luciferase expression (PARP1 3′ UTR linked to Firefly Luciferase) ([7]; listed as miR223-3p mimic): inhibition of PARP1
active replication forks (BrdU) [8]: decreases active replication forks
depletion of DNA repair components (Western) [9]: depletes other DNA repair components as well as PARP1
